What all share (test): RORC target gene expression suppression, late-stage follow-up, mechanism study for RORC inverse agonist project, cell-based, qPCR, endogenous IL-17 and IL-23R, fluorescence (AID 624278)
A general note: Quantitative PCR measures a nucleic acid by following its amplification.

In assay [1] the test system is IL-17. The following applies: EL-4 murine T cells, IL-17/IL-23R qPCR, PMA/ionomycin, at 5 µM, stronger effect = lower value.
The target in assay [2] is Interleukin-17A (Mus musculus) (UniProt Q62386). The settings on record: EL-4 murine T cells, IL-17/IL-23R qPCR, PMA/ionomycin; IL-17; Protein.
Sequence of Interleukin-17A (Mus musculus) (Q62386 whole entry, looked up): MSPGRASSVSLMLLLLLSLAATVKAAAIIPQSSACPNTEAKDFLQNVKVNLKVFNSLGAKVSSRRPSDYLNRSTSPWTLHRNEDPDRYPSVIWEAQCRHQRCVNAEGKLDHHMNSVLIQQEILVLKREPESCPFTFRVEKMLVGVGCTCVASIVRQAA
For assay [3], the system named is IL-23R. The following applies: EL-4 murine T cells, IL-17/IL-23R qPCR, PMA/ionomycin, at 5 µM, stronger effect = lower value.

Active and inactive are the calls of the source.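 How the source made its calls: active means target gene mRNA expression lowered over 20% below the solvent-only control in each of three panels; inactive means the rest.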

`OC(c1ccc(-c2ccc(CN3CCN(Cc4ccncc4)CC3)cc2)c(F)c1)(C(F)(F)F)C(F)(F)F`: the relative protein level in assay [1] (IL-17 protein level) was 0.6. For the same molecule, the relative gene expression in assay [1] (mRNA) is 0.1; in assay [3], 0.2. Also, the outcome in assay [2] was active.

The values above are taken from PubChem BioAssay AID624278 (The Scripps Research Institute Molecular Screening Center, 2012).
